Test results taken from publication PMC8119466, “A screen of FDA-approved drugs identifies inhibitors of protein tyrosine phosphatase 4A3 (PTP4A3 or PRL-3)” (Scientific Reports, 2021).
Where a name gives a salt, the structure may show the parent alone. Read-outs that look alike come from different tables or passages of the source.

Experiments:
Format in all cases: biochemical
[1] = biological target: T1, recombinant PRL-1 (Homo sapiens, UniProt Q93096); experiment: In vitro phosphatase assay (DiFMUP hydrolysis), PRL-1; further: test concentration or dose not given here
T1 construct: 6xHis (N, cleaved yes); made in house; host or cells: E. coli One Shot BL21 Star
T1 sequence (Q93096 1-173): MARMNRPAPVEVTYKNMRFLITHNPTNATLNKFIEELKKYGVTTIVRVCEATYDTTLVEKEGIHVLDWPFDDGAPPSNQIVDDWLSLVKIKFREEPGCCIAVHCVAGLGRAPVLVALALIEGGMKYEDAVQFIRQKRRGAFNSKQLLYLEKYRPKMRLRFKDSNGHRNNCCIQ

[2] = biological target: T2, recombinant PRL-2 (Homo sapiens, UniProt Q12974); experiment: In vitro phosphatase assay (DiFMUP hydrolysis), PRL-2;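 further: PRL-2 activity read as DiFMUP hydrolysis after 20 min at room temperature with drug, enzyme first pre-reduced at 4 °C for 20 min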
T2 construct: 6xHis (N, cleaved yes); made in house; host or cells: E. coli One Shot BL21 Star
T2 sequence (Q12974 1-167): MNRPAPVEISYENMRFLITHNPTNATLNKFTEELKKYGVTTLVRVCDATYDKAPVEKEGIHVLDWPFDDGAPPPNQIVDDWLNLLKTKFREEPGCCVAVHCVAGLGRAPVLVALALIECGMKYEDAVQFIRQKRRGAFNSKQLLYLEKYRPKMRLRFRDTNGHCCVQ

[3] = biological target: T3, recombinant PRL-3 (Homo sapiens, UniProt O75365); experiment: In vitro phosphatase assay (DiFMUP hydrolysis), PRL-3; further: test concentration or dose not given here
T3 construct: 6xHis (N, cleaved yes); made in house; host or cells: E. coli One Shot BL21 Star

[4] = FDA-approved drug screen, compared to DMSO

T3 sequence (O75365 whole entry): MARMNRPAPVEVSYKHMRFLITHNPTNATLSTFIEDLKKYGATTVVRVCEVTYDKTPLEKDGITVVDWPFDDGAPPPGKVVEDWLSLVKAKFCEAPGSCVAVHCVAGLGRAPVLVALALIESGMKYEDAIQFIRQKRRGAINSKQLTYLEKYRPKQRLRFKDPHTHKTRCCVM

SMILES | % Phosphatase Activity (compared to DMSO) PRL-1 [1, 4] [%] | % Phosphatase Activity (compared to DMSO) PRL-2 [2, 4] [%] | % Phosphatase Activity (compared to DMSO) PRL-3 [3, 4] [%] | % Phosphatase Activity (compared to DMSO) PRL-1 [1] [%] | % Phosphatase Activity (compared to DMSO) PRL-2 [2] [%] | % Phosphatase Activity (compared to DMSO) PRL-3 [3] [%]
N#C/C(=C1/SC[C@@H](c2ccc(Cl)cc2Cl)S1)n1ccnc1 [Luliconazole] | 98 | 90 | 83 |  |  | 
Cn1cnc2c(F)c(Nc3ccc(Br)cc3F)c(C(=O)NOCCO)cc21 [MEK162 (ARRY-162, ARRY-438162)] | 85 | 72 | 91 |  |  | 
CC(C)C[C@H](NC(=O)CNC(=O)c1cc(Cl)ccc1Cl)B(O)O [MLN2238] | 102 | 105 | 86 |  |  | 
CCCNS(=O)(=O)Nc1ncnc(OCCOc2ncc(Br)cn2)c1-c1ccc(Br)cc1 [Macitentan] | 93 | 75 | 85 |  |  | 
CC(C)OC(=O)C(C(=O)OC(C)C)=C1SC=CS1 [Malotilate] | 70 | 58 | 61 |  |  | 
COC(=O)C1=C(C)NC(C)=C(C(=O)OCCN2CCN(C(c3ccccc3)c3ccccc3)CC2)C1c1cccc([N+](=O)[O-])c1.Cl.Cl (stereo not drawn) [Manidipine 2HCl] | 97 | 87 | 82 |  |  | 
CNCCCC12CCC(c3ccccc31)c1ccccc12 [Maprotiline HCl] |  |  |  | 127 | 116 | 87
CN1CCN(c2c(F)cc3c(=O)c(C(=O)O)cn4c3c2OCN4C)CC1 [Marbofloxacin] | 345 | 386 | 180 |  |  | 
CNC(=O)[C@@H](NC(=O)[C@H](CC(C)C)[C@H](O)C(=O)NO)C(C)(C)C [Marimastat(BB-2516)] | 85 | 77 | 91 |  |  | 
Cc1ccc(NC(=O)c2ccc(CN3CCN(C)CC3)cc2)cc1Nc1nc(-c2cccnc2)cs1 [Masitinib (AB1010)] | 115 | 117 | 92 |  |  | 
COC(=O)Nc1nc2ccc(C(=O)c3ccccc3)cc2[nH]1 [Mebendazole] | 90 | 83 | 79 |  |  | 
CCOC(=O)c1c(C)n(C)c2ccc(O)cc12 [Mecarbinate] | 108 | 100 | 77 |  |  | 
Cc1cccc(CN2CCN(C(c3ccccc3)c3ccc(Cl)cc3)CC2)c1.Cl.Cl (stereo not drawn) [Meclizine 2HCl] | 103 | 112 | 96 |  |  | 
Cc1ccc(Cl)c(Nc2ccccc2C(=O)O)c1Cl [Meclofenamate Sodium] | 99 | 104 | 81 |  |  | 
Cc1cccc(C(C)c2cnc[nH]2)c1C (stereo not drawn) [Medetomidine HCl] |  |  |  | 109 | 113 | 99
CC(=O)O[C@]1(C(C)=O)CC[C@H]2[C@@H]3C[C@H](C)C4=CC(=O)CC[C@]4(C)[C@H]3CC[C@@]21C [Medroxyprogesterone acetate] | 89 | 89 | 85 |  |  | 
Cc1cccc(Nc2ccccc2C(=O)O)c1C [Mefenamic Acid] | 98 | 107 | 82 |  |  | 
OC(c1cc(C(F)(F)F)nc2c(C(F)(F)F)cccc12)C1CCCCN1 (stereo not drawn) [Mefloquine HCl] | 100 | 106 | 109 |  |  | 

SMILES | % Phosphatase Activity (compared to DMSO) PRL-1 [1, 4] [%] | % Phosphatase Activity (compared to DMSO) PRL-2 [2, 4] [%] | % Phosphatase Activity (compared to DMSO) PRL-3 [3, 4] [%] | % Phosphatase Activity (compared to DMSO) PRL-1 [1] [%] | % Phosphatase Activity (compared to DMSO) PRL-2 [2] [%] | % Phosphatase Activity (compared to DMSO) PRL-3 [3] [%]
CC(=O)O[C@]1(C(C)=O)CC[C@H]2[C@@H]3C=C(C)C4=CC(=O)CC[C@]4(C)[C@H]3CC[C@@]21C [Megestrol Acetate] | 86 | 92 | 67 |  |  | 
CNC[C@H](O)[C@@H](O)[C@H](O)[C@H](O)CO [Meglumine] | 105 | 125 | 110 |  |  | 
COc1ccc2[nH]cc(CCNC(C)=O)c2c1 [Melatonin] | 125 | 108 | 81 |  |  | 
Cc1cnc(NC(=O)C2=C(O)c3ccccc3S(=O)(=O)N2C)s1 [Meloxicam] | 74 | 75 | 83 |  |  | 
CC12CC3CC(C)(C1)CC(N)(C3)C2 [Memantine HCl] | 83 | 107 | 94 |  |  | 
CC1=CC(=O)c2ccccc2C1=O [Menadione] | 62 | 75 | 62 |  |  | 
C[N+]1(C)CCCC(OC(=O)C(O)(c2ccccc2)c2ccccc2)C1 (stereo not drawn) [Mepenzolate Bromide] | 93 | 93 | 80 |  |  | 
[O-][n+]1cccc(CO)c1 [Mepiroxol] | 100 | 112 | 87 |  |  | 
Cc1cccc(C)c1NC(=O)C1CCCCN1C (stereo not drawn) [Mepivacaine HCl] | 86 | 104 | 87 |  |  | 
C[C@H]1C[C@H]2[C@@H]3CCC4=CC(=O)C=C[C@]4(C)[C@H]3C(=O)C[C@]2(C)[C@@]1(O)C(=O)CO [Meprednisone] | 99 | 97 | 78 |  |  | 
CCC1(c2cccc(O)c2)CCCCN(C)C1 (stereo not drawn) [Meptazinol HCl] | 106 | 124 | 84 |  |  | 
COc1ccc(O)cc1 [Mequinol] | 104 | 120 | 85 |  |  | 
S=c1nc[nH]c2nc[nH]c12 [Mercaptopurine (6-MP)] | 93 | 76 | 74 |  |  | 
C[C@@H](O)[C@H]1C(=O)N2C(C(=O)O)=C(S[C@@H]3CN[C@H](C(=O)N(C)C)C3)[C@H](C)[C@H]12 [Meropenem] | 104 | 109 | 57 |  |  | 
Nc1ccc(O)c(C(=O)O)c1 [Mesalamine] | 112 | 131 | 82 |  |  | 
O=S(=O)(O)CCS [Mesna] | 95 | 93 | 102 |  |  | 
CN1CCCCC1CCN1c2ccccc2Sc2ccc([S+](C)[O-])cc21 (stereo not drawn) [Mesoridazine Besylate] |  |  |  | 98 | 95 | 99
CC(C)NCC(O)c1cc(O)cc(O)c1 (stereo not drawn) [Metaproterenol Sulfate] | 98 | 112 | 95 |  |  | 
